Patent US20030049712A1, “Method of detecting protease activity in a cell” (priority 2001, published 2003)

System: caspase-3
Experiment: Caspase3 assay using an NES-protease cleavage-NLS fusion protein (EYFP translocation)
Assay type: cell-based
Conditions: 3T3 cells transiently transfected with pCaspase3-sensor Vector; staurosporin 700 nM; detected 4 hours post induction; untreated cells: EYFP in the cytoplasm
From the text: A construct was generated that includes a nucleotide sequence encoding a fusion protein including, in order from amino to carboxyl terminus, an NES of MAP-kinase-kinase (NLVDLQKKLEELELDEQQ; SEQ ID NO: 23); a recognition site for caspase-3 (DEVD; SEQ ID NO: 22) bordered by a stretch of amino acids found in the cleavage site of the endogenous caspase-3 substrate poly (ADP-ribose) polymerase (PARP; Nicholson et al. (1995) Nature 376:37-43; and Tewari et al. (1995) Cell 81:801-809), such that the cleavage recognition site has the sequence KRKGDEVDGVDF (SEQ ID NO: 24); an enhanced yellow fluorescent protein (EYFP); and a three tandem repeat of the NLS from simian virus large T antigen. In this construct, the NES is dominant over the NLS.
The construct was transfected into mammalian cells. Specifically, 3T3 cells were grown on coverslips, transiently transfected with the pCaspase3-sensor Vector which is encodes the above described fusion protein and is further illustrated in Clontechniques (April, 2002), and grown for 24 hours. Apoptosis was induced using staurosporin (700 nM) and caspase-3 activity was detected 4 hours post induction. Cells were fixed with 3% paraformaldehyde and photomicrographs were taken using a Zeiss microscope.

For `CN[C@@H]1C[C@H]2O[C@@](C)([C@@H]1OC)n1c3ccccc3c3c4c(c5c6ccccc6n2c5c31)C(=O)NC4` [staurosporin], the “caspase-3 activity read out as subcellular location of EYFP” value was “the EYFP was detected in the nucleus”.
